Converted amounts (≈) assume the structure as drawn.
Key:
[1] = test system: mice; assay: Light Dark Box test (anxiolytic effect); format: in vivo; conditions: per os 1 hour before the test
Text: The light dark paradigm is based on a conflict between the innate aversion of rodents to brightly illuminated areas and on the spontaneous exploratory behaviour of the mice. If given a choice between a large brightly compartment versus a small dark compartment they spontaneously prefer the dark part.
The apparatus consists of two PVC (polyvinylchloride) boxes (19×19×15 cm) covered with Plexiglas. One of these boxes is darkened. The other box is illuminated by 100 W desk lamp placed 15 cm above and providing an illumination of about 4400 Lux. An opaque plastic tunnel (5×7×10 cm) separates the dark box from the illuminated one.
Animals were placed individually in the lit box, with head directed towards the tunnel. The time spent in the lit box and the number of transitions between the two boxes was recorded over a 5 min period after the first entry of the animal in the dark box. The total walked distance in the lit box was also recorded. Animals scored without entry into the […] were excluded from the analysis.
(§1) Test compound was prepared in aqueous vehicle containing 0.5% w/v hydroxypropylmethyl cellulose, 0.5% v/v benzyl alcohol and 0.4% v/v Tween 80. It was administrated per os 1 hour before the implementation of the test.

[2] = test system: rat; assay: Elevated Plus Maze; format: in vivo; conditions: per os 1 hour before the test
Text: The Elevated Plus Maze (EPM) situation rests on the conflict between the innate tendencies of rodents to explore novel environments and avoid open and brightly lit areas. In this task the mouse is placed in the centre of the maze. From here it can walk down any of four runways. Two of the arms are well lit and open, and the other two are enclosed and dimly lit. Mice prefer the closed arms but will venture out into the open arms. The amount of time spent in the open arms and the number of times the mice enter the open arms are recorded. The total walked distance in the open arms is also recorded. “Anxious” mice will spend little time in the open arms and make very few entries into the open arms.
The apparatus is made of polyvinylchloride materials and consists of four equal exploratory arms (45×10 cm) which are all interconnected by a small platform (10×10 cm). Two arms are open and two others are closed with walls (30 cm high). The apparatus is placed 66 cm above the floor. A videotracking system is used to record the test (ViewPoint, France). […]
A trial consists of placing an animal on the central platform facing a closed arm. The number of entries and the duration spent in open arms are automatically recorded by a videotrack system during an 5 minutes period. […]

[3] = test system: cortical neurons; assay: Neurite outgrowth assay; format: cell-based; conditions: rat cortical neurons, 3 days exposure, tested at 1 nM, 10 nM and 100 nM
Protocol: Female rats of 17 days gestation were killed by cervical dislocation and the foetuses were removed from the uterus. Their brains were placed in ice-cold medium of Leibovitz (L15, Gibco, Fisher bioblock, France). Cortex were dissected and meninges were carefully removed. The cortical neurons were dissociated by trypsinization for 30 min at 37° C. (trypsin-EDTA Gibco) in presence of 0.1 mg/ml DNAse I (Roche, France). The reaction was stopped by addition of Dulbecco's Modified Eagle Medium (DMEM; Gibco) with 10% of fetal bovine serum (FBS; Gibco). The suspension was triturated with a 10-ml pipette and using a 21G needle and syringe, and centrifuged at 350×g for 10 min at room temperature. The pellet of dissociated cells was resuspended in medium consisting of Neurobasal (Gibco) supplemented with 2% B27 supplement (Gibco), 0.5 mM L-Glutamine (Gibco), an antibiotic-antimicotic mixture. Viable cells were counted in a Neubauer cytometer using the trypan blue exclusion test (Sigma). Cells were seeded on the basis of 30000 cells per Petri dish (ø35 mm, Nunc) precoated with poly-L-lysine. […]
A global analysis of the data was performed using a one way analysis of variance (ANOVA), followed by Fisher's Protected Least Significant Difference when applicable. […] All results were expressed as mean±sem. […]

[4] = test system: mice; assay: Modified Open Field (Dark), sedative or stimulating effect; format: in vivo; conditions: tested at 5-100 mg/kg, per os 1 hour before the test
Text: The open field (dark) is used to measure the spontaneous motor activity of mice in a quiet, dark environment. This system is useful for discriminating the sedating or stimulating properties of test compounds on spontaneous locomotion and can thus provide a preliminary indication of potentially adverse effects such as sedation.
The apparatus is an open plexiglass cage (52×52 cm) with 40 cm walls. The animal's movements are tracked by a computerised video tracking system, consisting of an overhead camera, diode sensors placed underneath the floor of the cage, computer and video analyser software (ViewPoint, France). The video camera is placed at 2.50 m above the cage and connected to the computer via a video capture card (Pinnacle Systems, France). The video tracking system is set in a way that the floor of the OF is divided into nine equal squares. The total number of crossed squares and the total walked distance are recorded.
Each animal is singly placed in a corner of the apparatus and its locomotor activity is automatically recorded over a period of 20 minutes.
The apparatus is cleaned between each animal with alcohol (70%).
as §1

[5] = test system: mice; assay: Marble Burying; format: in vivo; conditions: per os 1 hour before the test
Text: The Marble Burying test is used as a model for both anxiety and obsessive compulsive disorders. Mice have a natural tendency to bury marbles under the bedding when placed in a cage with rows of evenly spaced marbles on the floor. Suppression of this spontaneous burying has been used as a measure of anxiolytic drug action. Mice pre-treated with benzodiazepines and different classes of antidepressants bury less marbles when compared to the control mice
The apparatus consists of transparent polycarbonate cages (30 cm×18 cm×19 cm) containing a 5 cm layer of fine sawdust bedding and 20 glass marbles (diameter: 1.5 cm) spaced evenly along the walls of the cage. Each animal is placed individually in the cage where it remains for a 20 min test session. On termination of the test session the animals are removed from the cage and the number of marbles at least two-thirds buried in the sawdust is recorded.
as §1

[6] = test system: mice; assay: Forced Swim Test (antidepressant properties); format: in vivo; conditions: per os 1 hour before the test
Text: The forced swim test is the most widely used paradigm for the evaluation of potential antidepressant effect of drugs. Animals placed in a container filled with water show periods of increased swimming activity and periods of relative immobility. Immobile posture reflects a state of tiredness, fatigue, reduced stamina or a lowered mood (hopelessness) similar to the core symptoms observed in depressed patients and in individuals under intense stress. […] The test has some predictive value for anti-depressant drugs. The apparatus consists of a glass cylinder (height 35 cm; diameter 24 cm) filled with water (depth: 25 cm, temperature: 25±1° C.).
as §1

[7] = Kinetic solubility; format: physicochemical; conditions: kinetic from dmso stock
[8] = logD7.4; format: physicochemical; conditions: pH 7.4

Structure (SMILES)	Light Dark Box MED (Minimum Effective Dose) [1]	Elevated Plus Maze MED (Minimum Effective Dose) [2]	Neurite outgrowth: significant effect at concentrations [3]	Open Field (Dark) sedation [4]	Marble Burying MED (Minimum Effective Dose) [5]	Forced Swim Test MED (Minimum Effective Dose) [6]	solubility kinetic ([7]; pH 2, simulated gastric fluid) [µg/mL]	solubility kinetic ([7]; pH 6.5, aqueous buffer) [µg/mL]	logD [8]
Cc1nc2ccc(NC3Cc4ccccc4C3)cc2c(-c2ccccc2)c1C(=O)N1CCOCC1 [Example 2]	MED 10 mg/kg								
Cc1nc2ccc(NC3Cc4ccccc4C3)cc2c(-c2ccccc2)c1C(=O)O [Example 1, 6-(2,3-dihydro-1H-inden-2-ylamino)-2-methyl-4-phenylquinoline-3-carboxylic acid]	MED 0.1 mg/kg	MED 0.1 mg/kg	≦100 nM	No Sedation	MED 0.1 mg/kg	MED 10 mg/kg	25 to 50 (≈ 63.4 to 127 µM)	50 to 100 (≈ 127 to 254 µM)	2
